Where two headings read alike, the source gives them in different places.
Key:
[1] = test system: human erythroid progenitors; test: Colony-forming unit (CFU) assay, target-independent cytotoxicity; assay type: cell-based; details: 336 h
Text: (§1) The non-specific (target-independent) cytotoxicity of ADCs in human erythroid and myeloid progenitors is of interest as, in the context of off-target toxicities, uptake and trafficking of intact ADCs into normal cells can occur by different mechanisms following administration of ADC in vivo, including target-dependent, for example, NaPi2b-dependent internalization, or target-independent mechanisms, for example, FcγR-dependent internalization or non-specific endocytosis (Mahalingaiah et al., Pharmacol Ther. 2019 August; 200:110-125). Profiling the in vitro target-independent cytotoxicity of ADCs to erythroid and myeloid progenitors may further understanding of their interactions in vivo.
(§2) Briefly, 20,000 human bone marrow-isolated HSC CD34+ were seeded in a semi-solid methylcellulose-based media formulation containing recombinant human interleukin-3 (rhIL-3, 10 ng/mL), rh granulocyte-macrophage-colony-stimulating factor (rhGM-CSF, 10 ng/mL), rh stem cell factor (rhSCF, 50 ng/mL) and Erythropoietin (Epo, 3 U/mL), to induce differentiation into clonogenic progenitors of human erythroid (CFU-erythroid CFU-E, burst-forming unit-erythroid BFU-E), granulocyte-monocyte (CFU-granulocyte-macrophage CFU-GM) and multipotential (CFU-granulocyte-erythroid-monocyte-megakaryocyte CFU-GEMM). […] After treatment, erythroid and myeloid colonies were assessed microscopically and scored. The colonies were divided into the following categories based on size and morphology: CFU-E, BFU-E, CFU-GM and CFU-GEMM. Percent survivability values were calculated based on the number of colonies after treatment over the number of colonies after solvent controls treatment and plotted against test article concentration using GraphPad Prism 9 software (GraphPad Software, La Jolla, CA). IC50 values were calculated based on a non-linear regression log(inhibitor) versus response, variable slope (four parameters) by GraphPad Prism 9.

[2] = test system: human myeloid progenitors; test: as above; assay type: cell-based; details: 336 h
Text: as §1, §2

human NaPi2b = molecular target: T1, human NaPi2b (Homo sapiens, UniProt O95436); test: Competition binding (epitope binning) by flow cytometry, transfected HEK293-6e cells; details: unlabeled competitor 100 μg/mL, detection antibody 1 μg/mL
T1 construct: Full length human NaPi2b; host or cells: HEK293-6e
T1 sequence (O95436 1-690): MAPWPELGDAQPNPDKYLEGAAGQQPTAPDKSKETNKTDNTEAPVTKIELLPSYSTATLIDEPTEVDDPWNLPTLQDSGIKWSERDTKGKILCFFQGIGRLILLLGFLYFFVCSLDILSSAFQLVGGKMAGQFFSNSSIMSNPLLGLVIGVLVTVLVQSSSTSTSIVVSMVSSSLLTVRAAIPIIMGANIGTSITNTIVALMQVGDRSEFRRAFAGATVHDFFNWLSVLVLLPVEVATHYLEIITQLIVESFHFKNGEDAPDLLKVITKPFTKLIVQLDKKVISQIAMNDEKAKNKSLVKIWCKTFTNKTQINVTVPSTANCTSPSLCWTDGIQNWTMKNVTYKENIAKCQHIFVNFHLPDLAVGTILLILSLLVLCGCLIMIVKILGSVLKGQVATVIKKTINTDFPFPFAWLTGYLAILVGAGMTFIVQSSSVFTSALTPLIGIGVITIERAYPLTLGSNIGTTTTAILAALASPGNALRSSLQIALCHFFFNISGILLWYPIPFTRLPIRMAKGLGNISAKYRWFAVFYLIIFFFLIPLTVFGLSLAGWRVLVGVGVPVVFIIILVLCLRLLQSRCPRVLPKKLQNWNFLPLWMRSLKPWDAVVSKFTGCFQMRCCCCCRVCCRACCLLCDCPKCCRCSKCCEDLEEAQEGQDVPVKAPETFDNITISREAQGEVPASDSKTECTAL
Description: Binding was assessed by flow cytometry using HEK293-6e cells as described below.
HEK293-6e cells were transfected for ~24 hours to transiently express human NaPi2b (1 μg of pTT5-NaPi2b per 1 million cells) or transfected with GFP (ATUM, Menlo Park, CA; pD2610-v23, also 1 μg of DNA per 1 million cells). Following transfection, human NaPi2b-expressing HEK296-6e cells and transfected GFP-expressing HEK296-6e cells were mixed at 4:1 ratio. Each well of a V-bottom 96-well plate was seeded with 100,000 cells of the mixture and incubated with 100 μg/mL of unlabeled competitor anti-NaPi2b antibody for an hour on ice. Post incubation, cells were washed and stained with 1 μg/mL of AF647-conjugated anti-NaPi2b detection antibodies for an hour on ice. Following staining and washing, fluorescence was detected by flow cytometry on a BD LSRFortessa™ Cell Analyzer (BD Biosciences, Franklin Lake, NJ) with 10,000 minimum events collected per well. […] Percentage inhibition was calculated using the following formula: […]

[3] = test system: Construct 4 (chimeric human NaPi2b, region 341-358); test: Binding region mapping, flow cytometry on transfected HEK293-6e cells; details: antibody 20.0 nM, 24 hours at 4° C.
Text: (§3) NaPi2b constructs containing deletions in the main extracellular loop of human NaPi2b, as well as chimeric NaPi2b/NaPi2c constructs concerning this main loop, were generated.
(§4) As a complementary strategy, two additional constructs were designed in which the relevant region of the main loop was deleted such as to mimic NaPi2c/NaPi2a main extracellular loop (Constructs 6-7 in Table 52.1). Clones were generated at GenScript Biotech (Piscataway, NJ).
(§5) Constructs were expressed in HEK293-6e cells as follows. Cells were maintained under standard culture conditions (37° C./5% CO2) with shaking at 110 rpm for suspension and cultured in FreeStyle™ 293 Expression Medium (Thermo Fisher Scientific, Waltham, MA) supplemented with 1% fetal bovine serum (Thermo Fisher Scientific, Waltham, MA) and 1× Penicillin-Streptomycin (Thermo Fisher Scientific, Waltham, MA). Cells were transfected with clones expressing the constructs listed in Table 52.1, at 1 μg of DNA per 1 million cells, using 293Fectin™ Transfection Reagent (Thermo Fisher Scientific, Waltham, MA) and Opti-MEM™ I Reduced Serum Medium (Thermo Fisher Scientific, Waltham, MA), and incubated for 24 hours under standard culture conditions (37° C./5% CO2/110 rpm). Following transfection, cells were seeded at 50,000 cells/well in conical-bottom 96-well plates and treated with a serial dilution of test antibody for 24 hours at 4° C. to prevent internalization. Cells were treated with final concentrations of all humanized antibodies of 200, 20, or 2 nM. Cells were treated with final concentrations of the reference anti-NaPi2a rabbit antibody of 50, 5, or 0.5 nM. […] Following incubation and washing, fluorescence was detected by flow cytometry on a BD LSRFortessa™ Cell Analyzer (BD Biosciences, Franklin Lake, NJ) with 1,000 minimum events collected per well. […] Background-subtracted AF647 Mean Fluorescence Intensity (MFI) values were calculated by subtracting the average MFI of three technical replicates of unstained (no primary antibody) cells.

[4] = test system: Construct 1 (chimeric human NaPi2b, region 239-259); test: as above; details: 24 hours at 4° C.
Text: as §3, §4, §5

[5] = test system: Construct 2 (chimeric human NaPi2b, region 280-301); test: as above; details: 24 hours at 4° C.
Text: as §3, §4, §5

Compound: CC[C@@]1(O)C(=O)OCc2c1cc1n(c2=O)Cc2c-1nc1cc(F)c(C)cc1c2CNC(=O)OCCO [Compound 139, 2-hydroxyethyl (S)-((4-ethyl-8-fluoro-4-hydroxy-9-methyl-3,14-dioxo-3,4,12,14-tetrahydro-1H-pyrano[3′,4′:6,7]indolizino[1,2-b]quinolin-11-yl)methyl)carbamate]
- IC50 ([1]; 14 days incubation, read-out: Human IC50, Erythroid progenitors): 1.32 nM
- IC50 ([1]; 14 days, read-out: IC50, erythroid progenitors): 1.32 nM
- IC50 ([2]; 14 days incubation, read-out: Human IC50, Myeloid progenitors): 1.75 nM
- IC50 ([2]; 14 days, read-out: IC50, myeloid progenitors): 1.75 nM

Compound: Palivizumab [v16955 (negative control)]
- % Inhibition vs. irrelevant mAb, labeled detection antibody v16955 (negative control) (human NaPi2b): 0%
- % Inhibition vs. irrelevant mAb, labeled detection antibody v18992 (MX35) (human NaPi2b): 0%
- % Inhibition vs. irrelevant mAb, labeled detection antibody v18993 (lifastuzumab) (human NaPi2b): 0%
- % Inhibition vs. irrelevant mAb, labeled detection antibody v23855 (human NaPi2b): 0%

Compound: lifastuzumab [lifastuzumab (v18993)]
- Background-Subtracted AF647 Mean Fluorescence Intensity [3]: 1,049
- Background-Subtracted AF647 Mean Fluorescence Intensity ([4]; antibody 2.0 nM): 1,232
- Background-Subtracted AF647 Mean Fluorescence Intensity ([4]; antibody 20.0 nM): 1,697
- Background-Subtracted AF647 Mean Fluorescence Intensity ([4]; antibody 200.0 nM): 1,508
- Background-Subtracted AF647 Mean Fluorescence Intensity ([5]; antibody 20.0 nM): 1,198
- Background-Subtracted AF647 Mean Fluorescence Intensity ([5]; antibody 200.0 nM): 1,232

— patent US20260232827A1, “ANTIBODY-DRUG CONJUGATES TARGETING NAPI2B AND METHODS OF USE” (Zymeworks BC Inc., priority 2023, published 2026)
